From PubChem BioAssay AID1259407 (Chemical Carcinogenesis Research Information System (CCRIS), 2018) come the findings set out here.

In this data set the test system is CCRIS mutagenicity, Ames/micronucleus/aberration tests. Nature of the data set: CCRIS mutagenicity studies.
[1] abbreviates: Test System: AMES SALMONELLA TYPHIMURIUM, Strain/Indicator: TA98, Metabolic Activation: NONE, Method: PREINCUBATION
Setting [2] is: Test System: AMES SALMONELLA TYPHIMURIUM, Strain/Indicator: TA100, Metabolic Activation: NONE, Method: PREINCUBATION
The mark [3] stands for this setting: Test System: AMES SALMONELLA TYPHIMURIUM, Strain/Indicator: TA1535, Metabolic Activation: NONE, Method: PREINCUBATION
Setting [4] is: Test System: AMES SALMONELLA TYPHIMURIUM, Strain/Indicator: TA1537, Metabolic Activation: NONE, Method: PREINCUBATION
Where [5] appears, read: Test System: AMES SALMONELLA TYPHIMURIUM, Strain/Indicator: TA1538, Metabolic Activation: NONE, Method: PREINCUBATION
Setting [6] is: Test System: AMES SALMONELLA TYPHIMURIUM, Strain/Indicator: TA98, Metabolic Activation: NONE, Method: STANDARD PLATE.
[7] abbreviates: Test System: AMES SALMONELLA TYPHIMURIUM, Strain/Indicator: TA100, Metabolic Activation: NONE, Method: STANDARD PLATE.
Setting [8] is: Test System: AMES SALMONELLA TYPHIMURIUM, Strain/Indicator: TA1535, Metabolic Activation: NONE, Method: STANDARD PLATE.
Setting [9] is: Test System: AMES SALMONELLA TYPHIMURIUM, Strain/Indicator: TA1537, Metabolic Activation: NONE, Method: STANDARD PLATE.

Active and inactive are the calls of the source. No rule for the calls is given here.

`[O-][n+]1c2ccc3ccccc3c2cc2c3ccccc3ccc21`: the mutagenic call (Test System: AMES SALMONELLA TYPHIMURIUM, Strain/Indicator: TA100, Metabolic Activation: GUINEA PIG, LIVER, S-9, 3-METHYLCHOLANTHRENE, Method: STANDARD PLATE) was “inactive; negative” and the mutagenic call (Test System: CHINESE HAMSTER V-79, Strain/Indicator: V-79/6-THIOGUANINE, Metabolic Activation: GUINEA PIG, LIVER, S-9, 3-METHYLCHOLANTHRENE) was “active; positive”.
On to `[N-]=[N+]=NC[C@@H](CO)Cc1ccccc1`, for which, where the note is “Test System: AMES SALMONELLA TYPHIMURIUM, Strain/Indicator: TA100, Metabolic Activation: RAT, LIVER, S-9, PCB, Method: PREINCUBATION”, the mutagenic call is “active; positive”.
In the case of `O=C(O)Cc1ccccc1[N+](=O)[O-]`, the mutagenic call reads like this: under setting [1], “inactive; negative”; under setting [2], “active; positive”; under setting [3], “active; positive”; under setting [4], “inactive; negative”; under setting [5], “active; positive”.
Consider `C1=CC2OC2C=C1` (stereo unspecified), for which the mutagenic call is, setting by setting: under setting [6], “inactive; negative”; (Test System: AMES SALMONELLA TYPHIMURIUM, Strain/Indicator: TA98, Metabolic Activation: RAT, LIVER, S-9, PHENOBARBITAL, Method: STANDARD PLATE) “inactive; negative”; under setting [2], “inactive; negative”; under setting [7], “inactive; negative”; (Test System: AMES SALMONELLA TYPHIMURIUM, Strain/Indicator: TA100, Metabolic Activation: RAT, LIVER, S-9, PHENOBARBITAL, Method: PREINCUBATION) “active; positive”; (Test System: AMES SALMONELLA TYPHIMURIUM, Strain/Indicator: TA100, Metabolic Activation: RAT, LIVER, S-9, PHENOBARBITAL, Method: STANDARD PLATE) “active; positive”. The mutagenic call is, setting by setting: under setting [8], “inactive; negative”; (Test System: AMES SALMONELLA TYPHIMURIUM, Strain/Indicator: TM677/8-AZAGUANINE, Metabolic Activation: NONE, Method: PREINCUBATION) “inactive; negative”; (Test System: AMES SALMONELLA TYPHIMURIUM, Strain/Indicator: TM677/8-AZAGUANINE, Metabolic Activation: NONE, Method: STANDARD PLATE) “inactive; negative”; (Test System: AMES SALMONELLA TYPHIMURIUM, Strain/Indicator: TM677, Metabolic Activation: RAT, LIVER, S-9, PHENOBARBITAL, Method: PREINCUBATION) “active; positive”.
`[Cl][Pt][Cl].c1cc2c3c(c1)CCCN3CCC2`: the mutagenic call is “inactive; negative” (Test System: AMES SALMONELLA TYPHIMURIUM, Strain/Indicator: TA92, Metabolic Activation: NONE, Method: STANDARD PLATE); “inactive; negative” under setting [6]; “inactive; negative” under setting [7]; “inactive; negative” (Test System: AMES SALMONELLA TYPHIMURIUM, Strain/Indicator: TA2410, Metabolic Activation: NONE, Method: STANDARD PLATE); “inactive; negative” (Test System: E. COLI, Strain/Indicator: TM6, Metabolic Activation: NONE, Method: STANDARD PLATE); “active; positive” (Test System: E. COLI, Strain/Indicator: TM9, Metabolic Activation: NONE, Method: STANDARD PLATE).
Regarding `CC[C@H](c1ccc(O)cc1)[C@@H](CC)c1ccc(O)cc1`, the mutagenic call is, setting by setting: (End Point: IN VITRO CHROMOSOMAL ABERRATIONS, Test System: CHINESE HAMSTER CELL DON (22;XY), Metabolic Activation: NONE) “active; positive (ploidy changes)”; under setting [6], “inactive; negative”; (Test System: AMES SALMONELLA TYPHIMURIUM, Strain/Indicator: TA98, Metabolic Activation: RAT, LIVER, S-9, Method: STANDARD PLATE) “inactive; negative”; under setting [7], “inactive; negative”; (Test System: AMES SALMONELLA TYPHIMURIUM, Strain/Indicator: TA100, Metabolic Activation: RAT, LIVER, S-9, Method: STANDARD PLATE) “inactive; negative”; under setting [8], “inactive; negative; toxicity at 50 ug/plate”. Moreover, the mutagenic call was “inactive; negative; toxicity at 100 ug/plate” (Test System: AMES SALMONELLA TYPHIMURIUM, Strain/Indicator: TA1535, Metabolic Activation: RAT, LIVER, S-9, Method: STANDARD PLATE); “inactive; negative; toxicity at 100 ug/plate” under setting [9]; “inactive; negative” (Test System: AMES SALMONELLA TYPHIMURIUM, Strain/Indicator: TA1537, Metabolic Activation: RAT, LIVER, S-9, Method: STANDARD PLATE); “inactive; negative” (Test System: AMES SALMONELLA TYPHIMURIUM, Strain/Indicator: TA1538, Metabolic Activation: NONE, Method: STANDARD PLATE); “inactive; negative; toxicity at 100 ug/plate” (Test System: AMES SALMONELLA TYPHIMURIUM, Strain/Indicator: TA1538, Metabolic Activation: RAT, LIVER, S-9, Method: STANDARD PLATE); “inactive; negative” (Test System: UDS RAT HEPATOCYTES, Strain/Indicator: THY INCORP (18-20 HR), Metabolic Activation: NONE, Method: LIQUID SCINTILLATION COUNTING).
On to `[O]=[W](=[O])([OH])[OH]`, for which the mutagenic call reads like this: under setting [1], “inactive; negative”; (Test System: AMES SALMONELLA TYPHIMURIUM, Strain/Indicator: TA98, Metabolic Activation: RAT LIVER S-9, PHENOBARBITAL AND BETA-NAPHTHOFLAVONE, Method: PREINCUBATION) “inactive; negative”; under setting [2], “inactive; negative”; (Test System: AMES SALMONELLA TYPHIMURIUM, Strain/Indicator: TA100, Metabolic Activation: RAT LIVER S-9, PHENOBARBITAL AND BETA-NAPHTHOFLAVONE, Method: PREINCUBATION) “inactive; negative”; under setting [3], “inactive; negative”; (Test System: AMES SALMONELLA TYPHIMURIUM, Strain/Indicator: TA1535, Metabolic Activation: RAT LIVER S-9, PHENOBARBITAL AND BETA-NAPHTHOFLAVONE, Method: PREINCUBATION) “inactive; negative”. The mutagenic call is “inactive; negative” under setting [4]; “inactive; negative” (Test System: AMES SALMONELLA TYPHIMURIUM, Strain/Indicator: TA1537, Metabolic Activation: RAT LIVER S-9, PHENOBARBITAL AND BETA-NAPHTHOFLAVONE, Method: PREINCUBATION); “inactive; negative” under setting [5]; “inactive; negative” (Test System: AMES SALMONELLA TYPHIMURIUM, Strain/Indicator: TA1538, Metabolic Activation: RAT LIVER S-9, PHENOBARBITAL AND BETA-NAPHTHOFLAVONE, Method: PREINCUBATION); “inactive; negative” (Test System: E.COLI, Strain/Indicator: WP2UVRA, Metabolic Activation: NONE, Method: PREINCUBATION); “inactive; negative” (Test System: E.COLI, Strain/Indicator: WP2UVRA, Metabolic Activation: RAT LIVER S-9, PHENOBARBITAL AND BETA-NAPHTHOFLAVONE, Method: PREINCUBATION).
Regarding `CC(=O)Nc1snc2ccc(Cl)cc12`, the mutagenic call runs as follows: under setting [6], “inactive; negative”; (Test System: AMES SALMONELLA TYPHIMURIUM, Strain/Indicator: TA98, Metabolic Activation: S-9, Method: STANDARD PLATE) “inactive; negative”; under setting [7], “inactive; negative”; (Test System: AMES SALMONELLA TYPHIMURIUM, Strain/Indicator: TA100, Metabolic Activation: S-9, Method: STANDARD PLATE) “active; positive”; under setting [8], “inactive; negative”; (Test System: AMES SALMONELLA TYPHIMURIUM, Strain/Indicator: TA1535, Metabolic Activation: S-9, Method: STANDARD PLATE) “inactive; negative”. Moreover, the mutagenic call under setting [9] was “inactive; negative” and the mutagenic call (Test System: AMES SALMONELLA TYPHIMURIUM, Strain/Indicator: TA1537, Metabolic Activation: S-9, Method: STANDARD PLATE) was “active; positive”.
